Data published in patent US5707963A, “Methods of using growth inhibitory peptides” (Health Research, Incorporated, priority 1996, dated 1998).
Values joined by “and” are separate entries in the source; they are usually repeats but may differ in a detail not shown here. Equal values may be shown once. Read-outs that look alike come from different tables or passages of the source.

What was measured:
[1] = tested on: diethylstilbestrol (DES)-stimulated growth of mouse uterus; assay: In vivo wet weight bioassay, inhibition of DES-stimulated growth of uteri; conditions: for Percent Growth Inhibition: immature mouse uterus
Method: An in vivo wet weight bioassay measuring inhibition of diethylstilbestrol (DES)-stimulated growth was also performed. The procedure of Mizejewski et al. (see previous citations) was used for the wet weight assay. The applicability of the wet weight bioassay for measuring DES-stimulated growth of uteri is disclosed by Korach, K. S. et al., "Estrogenic activity in vivo and in vitro of some diethylstilbestrol metabolites and analogs", Proc Natl Acad Sci USA 75:468-471 (1978).
(§1) Briefly, the synthesized powdered peptide was reconstituted in saline (1 mg/ml) to form a stock solution of the GIP. The stock solution was appropriately diluted to provide dosages of 10 ng to 100 μg/mouse. 0.1 ml of the appropriately diluted GIP was injected intraperitoneally into 15-18 day old Nya:NYLAR female mice. Control mice were injected with saline. 1 hour after this first injection, a DES challenge of 0.5 micrograms of DES in 0.1 ml saline was given to determine the change in uterine responsiveness to DES resulting from exposure to the first injection. 23 hours after the second injection, uteri were dissected, trimmed free of connective tissue and immediately weighed. The uterine wet weights were normalized to mouse body weight (mg uterine weight/g of body weight) to compensate for differences in body weight among litters of the same age. Percent inhibition of DES-stimulated uterine growth was calculated as described by Mizejewski et al. (1983).

[2] = tested on: hydrocortisone (HC)-stimulated growth of mouse spleen; assay: In vivo wet weight bioassay, inhibition of HC-stimulated growth of the spleen; conditions: for Percent Growth Inhibition: immature mouse spleen
Method: An in vivo wet weight bioassay measuring inhibition of hydrocortisone (HC)-stimulated growth of the spleen was also performed. The procedure of Mizejewski et al. (see previous citations) was used for the wet weight assay. The applicability of the wet weight bioassay for measuring HC-stimulated growth of the spleen is disclosed by el-Fouhil, A. F. and Turkall, R. M., "Effect of alternate-day hydrocortisone therapy on the immunologically immature rat. I: Effect on blood cell count, immunoglobulin concentrations, and body and organ weights", Toxicologic Pathology 21(4):377-382 (1993).
as §1, with “of 500” for “of 10”, “saline. […]” for “saline. 1 hour after this first injection, a DES challenge of 0.5 micrograms of DES in 0.1 ml saline was given to determine the change in uterine responsiveness to DES resulting from exposure to the first injection.”, “injection, spleens” for “injection, uteri”, “The spleenic” for “The uterine”, “(mg spleenic” for “(mg uterine”, “of HC-stimulated spleenic” for “of DES-stimulated uterine”

[3] = tested on: human chorionic gonadotropin (HCG)-stimulated growth of mouse ovary; assay: In vivo wet weight bioassay, inhibition of HCG-stimulated growth of the ovary; conditions: for Percent Growth Inhibition: immature mouse ovary
Method: An in vivo wet weight bioassay measuring inhibition of human chorionic gonadotropin (HCG)-stimulated growth of the ovary was performed. The procedure of Mizejewski et al. (see previous citations) was used for the wet weight assay. The applicability of the wet weight bioassay for measuring HCG-stimulated growth of the ovary is disclosed by Mizejewski, G. J., "Human Chorionic Gonadotrophin: Comparative Studies of Ovarian Uptake In Mammals", Comp Biochem Physio 52A:29-34 (1975).
Briefly, the synthesized powdered peptide was reconstituted in saline (1 mg/ml) to form a stock solution of the GIP. The stock solution was appropriately diluted to provide dosages of 10ng to 100 μg/mouse. 0.1 ml of the appropriately diluted GIP was injected intraperitoneally into 15-18 day old Nya:NYLAR female mice. Control mice were injected with saline. 1 hour after this first injection, an HCG challenge of 2.8 I.U. of HCG in 0.05 ml saline was given to determine the change in ovarian responsiveness to HCG resulting from exposure to the first injection. 23 hours after the second injection, ovaries were dissected, trimmed free of connective tissue and immediately weighed. The ovarian wet weights were normalized to mouse body weight (mg ovarian weight/g of body weight) to compensate for differences in body weight among litters of the same age. Percent inhibition of HCG-stimulated ovarian growth was calculated as described by Mizejewski et al. (1983).

[4] = tested on: mouse mammary tumor 6WI-1; assay type: in vivo
Method: A second assay was also used to assess the percent of inhibition for the various fragments. […] The procedure of Parsons et al. was used in this assay (see Parsons et al., Cancer investigation 4(2):109-126 (1986)). The mouse mammary tumor 6WI-1 normally kills animals within 12-15 days. In this assay, the tumor cells were injected into the body cavity of live mice. […] The inhibition of tumor growth is indicated by percentage. […] Unless otherwise indicated, the dose of peptide or peptide fragment was injected into the body cavity of the mice on day 1 and every day for 15 days. Percent inhibition was measured on day 15.

Leu Ser Glu Asp Lys Leu Leu Ala Cys Gly Glu Gly Ala Ala Asp Ile ile Ile Gly His Leu Cys Ile Arg His Glu Met Thr Pro Val Ash Pro Gly Val (LSEDKLLACGEGAADIIIGHLCIRHEMTPVNPGV) [GIP]
inhibition of DES-induced growth (range over Table 3) ([1]; 10ng to 100 μg/mouse): 14-27% | Percent Growth Inhibition ([1]; 10 ng per mouse): 27% | Percent Growth Inhibition ([1]; 100 ng per mouse): 25% | Percent Growth Inhibition ([1]; 800 ng per mouse i.p., DES 0.5 micrograms): 18% | Percent Growth Inhibition ([1]; 1 μg per mouse): 22% | Percent Growth Inhibition ([1]; 10 μg per mouse): 20% | Percent Growth Inhibition ([1]; 100 μg per mouse): 14% | most effective dose ([1]; immature uterus, produced 27% growth inhibition): 10 ng/mouse | inhibition of HC-induced growth (range over Table 4) ([2]; 500 ng to 100 μg/mouse): 24-100% | Percent Growth Inhibition ([2]; 1.0 μg per mouse): 100% | Percent Growth Inhibition ([2]; 10.0 μg per mouse): 76% | Percent Growth Inhibition ([2]; 100 μg per mouse, 1.0 μg of HC instead of 0.5 μg): 24% and 34% | Percent Growth Inhibition ([2]; 100 μg per mouse, HC 0.5 micrograms): 67% | most effective dose ([2]; immature spleen, produced 100% growth inhibition): 1.0 μg/mouse | inhibition of HCG-induced growth (range over Table 5) ([3]; 10ng to 100 μg/mouse): 22-100% | Percent Growth Inhibition ([3]; 100 ng per mouse): 70% | Percent Growth Inhibition ([3]; 125 ng per mouse): 50% | Percent Growth Inhibition ([3]; 250 ng per mouse): 56% | Percent Growth Inhibition ([3]; 500 ng per mouse): 67% | Percent Growth Inhibition ([3]; 1 μg per mouse): 100% and 79% | Percent Growth Inhibition ([3]; 10 μg per mouse): 94% | Percent Growth Inhibition ([3]; 100 μg per mouse i.p., HCG 2.8 I.U.): 22% | most effective dose ([3]; immature ovary, produced 100% growth inhibition): 1 μg/mouse | Percent Growth Inhibition ([4]; adult mouse, 100 μg per mouse daily for 15 days, 0.3-1.0×10^6 tumor cells per mouse, day 15): 97% | Percent Growth Inhibition ([4]; adult mouse, 100 μg per mouse daily for 15 days, 1.1-4.0×10^6 tumor cells per mouse, day 15): 79% | Percent Growth Inhibition ([4]; adult mouse, 1.1-4.0 × 10^6 tumor cells mixed with 100 μg of the peptide, injected only on day 1): 85% | Percent Growth Inhibition ([4]; immature mouse, 1000 μg per mouse daily for 15 days, 0.3-1.0×10^6 tumor cells per mouse, day 15): 57% | Percent Growth Inhibition ([4]; immature mouse, 1000 μg per mouse daily for 15 days, 1.1-4.0×10^6 tumor cells per mouse, day 15): 49%
